{
  "source": "patent US8202696B2",
  "about": "“Means for use in treating diseases correlated with or caused by non-physiological levels of microtubule-associated PP2Ac” (Max-Planck-Gessellschaft zur Forderung der Wissenschaften …, priority 2002, dated 2012)",
  "key": {"PP2A": {"test_system": "PP2A", "assay": "hFused phosphorylation in vitro, cytosol incubated with or without fostriecin, Western blot", "format": "biochemical", "conditions": "fostriecin 500 nM, 4 h, 30° C.", "method": "8×10^5 cells were transfected with hFused-V5 (aa 1-1335) using Qiagen Polyfect transfection reagent according to the manufacturer's instructions. Cytosol of hFused-V5 overexpressing cells was incubated for 4 h in the presence or absence of fostriecin (500 nM) at 30° C. Proteins (200 μg protein per lane) were separated on a 6% SDS-gel, blotted on PVDF-membranes and incubated with anti-V5-antibody (1:3000). Secondary HRP-antimouse-antibody was diluted 1:2000.\nFostriecin is a highly specific inhibitor of PP2A activity.\nCytosol of V5-tagged hFused-overexpressing cells was incubated for 4 h in the absence (line1) and presence (line2) of fostriecin at 30° C. Subsequently proteins were separated on an SDS-Page, blotted and incubated with an anti-V5 antibody."}, "Gli3": {"test_system": "Gli3", "assay": "Localization of overexpressed GFP-tagged Gli3 in HeLa cells", "format": "cell-based", "conditions": "GFP-Gli3 plus B-Box overexpressing HeLa cells", "method": "1×10^5 HELA cells per well of a 6-well plate were transfected with Qiagen Polyfect transfection reagent according to the manufacturer's instructions. The ratio of the amount of DNA to the amount of polyfect transfection reagent was 3 μg DNA/10 μl Polyfect. Constructs used for expression in HELA were the following: GFP-GLI3 (aa 18-1549), GLI3-GFP (aa 1-1522), MYC-GLI3 (aa 18-1596), FLAG-GLI3 (aa18-1596), MYC-B-BOX1 (aa 110-167 of the MID1 protein), ALPHA4-V5 (aa 1-339). 24 h after transfection immunofluorescence was performed. GFP-constructs were treated as described in Schweiger et al., 1999. Immunofluorescence with MYC-tagged and FLAG-tagged constructs was done according to Trockenbacher et al., 2001. FLAG-tagged constructs were detected with anti-FLAG-antibody diluted 1:500, the secondary antibody FITC-antimouse was diluted 1:1000. For MYC-tagged constructs anti-MYC-antibody 1:300 and CY3-antirabbit 1:1000 were used. […]\nOverexpressed Gli3 is predominantly localized in the nucleus (FIG. 10, top left)."}, "proteasome": {"test_system": "proteasome", "assay": "Polyubiquitinated proteins in the MID1 immune complex, COS7 cells", "format": "cell-based", "conditions": "MID1-myc, anti-myc precipitate", "method": "Immunoprecipitation, western blotting and immunofluorescence. For COS7 cells, we lysed in IP1 buffer 8×10^6 cells transfected with pBudCE4 vector carrying the respective cDNAs. After preclearing the lysate with 50 μl protein A-agarose (slurry), we incubated supernatants with 2 μg anti-V5 overnight at 4° C. and then for 2 h with 75 μl (slurry) protein A-agarose. After three washes in IP1 buffer, we eluted the proteins with 1× Laemmli buffer at 95° C. MID1-V5 expression was optimal 48 h after doxycyclin removal from 293 tet-off cell lines. We then lysed cells in IP1 buffer and carried out immunoprecipitation with 2 μg anti-V5. We boiled proteins in 1×SDS-PAGE buffer, separated them on 10% and 12% SDS gels, blotted on PVDF membranes (Roche) and blocked and incubated with the respective primary antibody according to the manufacturer's instructions. Because several RING-finger proteins interact with target proteins and thereby elicit their ubiquitin-dependent degradation^8-11, we examined interaction of MID1 with polyubiquitinated proteins. We transfected COS7 cells either with MID1 cDNA or, as a control, with cDNA encoding protein kinase C (PKC), each tagged with a C-terminal V5 epitope or an empty vector, respectively. We treated the cells with 25 μM of LLnL, a proteasome inhibitor, 24 h after transfection to enrich for ubiquitinated proteins. […]"}, "α4": {"biological_target": "T1, α4 (Homo sapiens, UniProt P78318)", "T1 construct": "expressed in transfected cells; host or cells: L40 yeast strain", "T1 sequence (P78318 1-339)": "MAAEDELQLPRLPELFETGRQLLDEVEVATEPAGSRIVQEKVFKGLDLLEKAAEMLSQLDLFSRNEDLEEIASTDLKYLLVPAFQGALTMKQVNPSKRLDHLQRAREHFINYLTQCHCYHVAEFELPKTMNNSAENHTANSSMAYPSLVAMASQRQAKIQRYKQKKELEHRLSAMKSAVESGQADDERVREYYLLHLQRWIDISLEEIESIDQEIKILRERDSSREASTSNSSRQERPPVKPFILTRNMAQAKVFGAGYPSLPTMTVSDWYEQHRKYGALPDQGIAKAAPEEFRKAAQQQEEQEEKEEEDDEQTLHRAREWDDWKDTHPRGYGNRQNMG", "assay": "Yeast two-hybrid interaction of MID1 constructs with α4", "format": "binding", "method": "Yeast two-hybrid screening. For yeast two-hybrid screening, we cloned full-length MID1 cDNA into the pBTM116 vector. We then cotransfected this with a human fetal brain cDNA Matchmaker library in the pGAD10 vector (Clontech) into the L40 yeast strain. We plated the transformants on synthetic medium lacking histidine, leucine and tryptophan (his^− leu^− trp^−) and containing 3-amino-1,2,4, triazole, and incubated the plates at 30° C. for 5 days. We assayed his-positive colonies for β-galactosidase activity with a filter assay^47. We isolated plasmid DNA from β-galactosidase-positive clones and cotransfected this again into L40 yeast with MID1-pBTM116 and controls. We selected plasmids that produced growth on selective plates only in combination with MID1-pBTM116, which were assumed to code for MID1 interactors, and sequenced them.\nActivity of β-galactosidase in yeast liquid cultures. We assayed cells for β-galactosidase activity by the o-nitrophenyl-β-D-galactopyranoside (ONPG) method^47.\nMID1 is a multidomain protein harboring a RING finger, two B-boxes, a coiled-coil region, a fibronectin type III domain and a B30.2 domain^3—all of which are candidate regions for specific protein-protein interactions. To clarify which domain specifically binds α4, we tested several deletion mutants of MID1 for interaction with α4 in the yeast two-hybrid system. […]"}, "tau protein": {"test_system": "tau protein", "assay": "Tau-1 and pan-Tau immunofluorescence in transfected postnatal sympathetic neurons", "format": "cell-based, rat", "conditions": "compared to non-transfected neurons = 100%, two days after transfection", "method": "Peripheral sympathetic neurons were obtained from postnatal day 1-3 rats. […] Following mechanical dissociation the cell suspension was filtered through a 40 μm nylon mesh and seeded at 6 SCGs per well into uncoated Falcon dishes for preplating purposes. After 4 hours neurons were transferred into glass floor dishes (Willco Wells B.V., gwst 3522, 3.8 cm^2 area/dish) coated with poly-D-lysine/laminin. Neurons were maintained in RPMI medium containing antibiotics, N2 additive (Invitrogen) and 100 ng/ml nerve growth factor (NGF; Sigma) at 37° C. in a humidified atmosphere with 5% CO2.\nNeurons were transfected 2 hours after seeding applying the biolistic approach. This method uses a hand held gun to bombard dissociated neurons at high velocity with micron-size gold particles loaded with DNA. The coating of gold particles with DNA was achieved using a modification of the manufacturer's instructions (Bio-Rad Laboratories). For preparation of 35 cartridges 25 mg gold particles (1.6 μm diameter) were suspended in 50 μl of 0.05 M spermidine. After vortexing and sonication for 5 seconds, 50 μg plasmid DNA dissolved in 50 μl TE buffer was added (for co-transfection experiments, 80 μg were used, i.e., 40 μg Plasmid I+40 μg Plasmid 2). The amount of gold particles and DNA corresponds to a microcarrier loading quantity (MLQ) of about 0.7 (mg/cartridge) and to a DNA loading ratio (DLR) of 2 (μg/mg) for single transfection experiments. DNA, spermidine and gold were then mixed for 5 sec in a variable speed vortexer. At low vortexing speed, 50 μl 1 M CaCl2 was added dropwise to the mixture for association of DNA with the gold particles followed by precipitation for 10 min at room temperature. The supernatant was removed and the pellet rinsed with 800 μl of 100% ethanol. Washing was repeated two times with centrifugation steps at 3000 g between each wash. […]\nA fully motorized Zeiss Axiovert 100M microscope equipped for inverted fluorescence was used for visualization of fluorescent neurons. […]"}},
  "note": "Entries after “also recorded” stand apart in the source; their conditions may differ.",
  "data": [
    {"molecule": "C[C@@](O)(/C=C/[C@H]1CC=CC(=O)O1)[C@@H](C[C@@H](O)\\C=C/C=C\\C=C\\CO)OP(=O)(O)O", "note": "[fostriecin]", "values": [
      {"measurement": "Phosphorylated hFused-band on Western blot", "setting": "PP2A", "value": "clear enrichment of the phosphorylated hFused-band"},
      {"measurement": "Ratio between phosphorylated and dephosphorylated hFused-form", "setting": "PP2A; cytosol of V5-tagged hFused-overexpressing cells, control without fostriecin 1.8×", "value": 18, "unit": "×"},
      {"measurement": "Gli3 localization in presence of B-Box overexpression", "setting": "Gli3", "value": "reverse the observed effect"}
    ]},
    {"molecule": "CC(=O)N[C@@H](CSC(=O)[C@]1([C@@H](O)C(C)C)NC(=O)[C@H](C)[C@@H]1O)C(=O)O", "note": "[lactacystin]", "values": [
      {"measurement": "High-molecular weight proteins in MID1-myc-containing precipitates", "setting": "proteasome", "value": "enrichment of high-molecular weight proteins"}
    ]},
    {"molecule": "MID2: protein highly similar in amino acid sequence (83%) to MID1 (PTTAMSSERIACQFCEQDPPRDAVKTCITCEVSYCDRCLRATHPNKKPFTSHRLVEPV; listed as Homo sapiens)", "values": [
      {"measurement": "Interaction with α4", "setting": "α4", "value": "binds α4"}
    ]},
    {"molecule": "inactive mutated form of the B-BOX1: Bbox1 with exchange of alanine 130 to threonine, abolishes association with α4 (ANTMTSAEKVLCQFCDQDPAQDTVKTCVTCEVSYCDECLKATHPNKKPFTGHRLIEPI) [reference compound]", "values": [
      {"measurement": "Tau-1 immunoreactivity (dephosphorylated tau)", "setting": "tau protein", "value": "does not show this effect; also recorded: do not exhibit different fluorescent levels"}
    ]}
  ]
}
